Assay: mn = molality of the nth substance listed, in mol/kg
Conditions: 298.15 K, 101.3 kPa, Liquid; for binary diffusion coefficient: Taylor dispersion method; for mass density: Vibrating tube method

NCCCC(=O)O [4-aminobutanoic acid] + O
Conditions | binary diffusion coefficient [m2/s] | mass density [kg/m3]
m1 = 0.001003 | 7.8e-10 | –
m1 = 0.00106 | – | 997.083
m1 = 0.00258 | – | 997.127
m1 = 0.00467 | – | 997.199
m1 = 0.005016 | 7.79e-10 | –
m1 = 0.00517 | – | 997.203
m1 = 0.00833 | – | 997.308
m1 = 0.01004 | 7.78e-10 | –
m1 = 0.01088 | – | 997.389
m1 = 0.01968 | – | 997.658
m1 = 0.02009 | 7.77e-10 | –
m1 = 0.03015 | 7.76e-10 | –
m1 = 0.03823 | – | 998.069
m1 = 0.05033 | 7.72e-10 | –
m1 = 0.05427 | – | 998.687
m1 = 0.06297 | – | 998.944
m1 = 0.07297 | – | 999.113
m1 = 0.101 | 7.65e-10 | –
m1 = 0.1017 | – | 1000.1
